Molecular target: T1, LRRK2 (Homo sapiens, UniProt Q5S007, G2019S)
T1 construct: purchased Invitrogen PV4882
Assay: In Vitro LRRK2 LabChip Assay (LRRK2 Ki)
Format: biochemical
Settings: Table 5 compounds (formula I)
Protocol: In Vitro LRRK2 LabChip Assay
This assay was used to determine a compound's potency in inhibiting activity of LRRK2 by determining, Kiapp, IC50, or percent inhibition values. In a polypropylene plate, LRRK2, fluorescently-labeled peptide substrate, ATP and test compound were incubated together. Using a LabChip 3000 (Caliper Life Sciences), after the reaction the substrate was separated by capillary electrophoresis into two populations: phosphorylated and unphosphorylated. The relative amounts of each were quantitated by fluorescence intensity. LRRK2 Ki was determined according to the equation: Y=V0*(1−((x+Ki*(1+S/Km)+Et)/(2*Et)−(((x+Ki*(1+S/Km)+Et)^2−(4*Et*x))^0.5)/(2*Et))). Ki values in Table 4 and elsewhere herein are shown in μM.
Assay conditions and materials used were as follows:
LRRK2 Wild type in 5 mM MgCl2: 15 nM (Invitrogen lot #500607F)
Kinase reaction time: 2 hours
Wild type in 5 mM MgCl2: 80 μM
Solid Support: Black 50 μL volume polypropylene 384 well plate (MatriCal cat # MP101-1-PP)
Kinase: LRRK2 G2019S (Invitrogen cat #PV4882). • LRRK2 Wild type (Invitrogen cat #PV4874).
Substrate: 5FAM-[…]-CONH2
Non-binding plate: 384 well clear V-bottom polypropylene plates (Greiner cat #781280).
ATP: 10 mM ATP (Cell Signaling cat #9804).
Coating Reagent #3: Coating Reagent #3 (Caliper).
Complete Reaction Buffer: H2O/25 mM Tris, pH 8.0/5 mM MgCl2/2 mM DTT/0.01% Triton X-100.
Stop Solution: H2O/100 mM HEPES, pH 7.2/0.015% Brij-35/0.2% Coating Reagent #3/20 mM EDTA.
Separation Buffer: H2O/100 mM HEPES, pH 7.2/0.015% Brij-35/0.1% Coating Reagent #3/1:200 Coating Reagent #8/10 mM EDTA/5% DMSO.
Compound Plate Preparation:
For serial dilutions, 34.6 μl DMSO was added to columns 3-24. For the assay controls, 37.5 μl DMSO was added to columns 1 and 2 of rows A and P. a, d and 50 μl 25 μM G-028831 (Staurosporine) was added to columns 1 and 2, row B. For the samples: to start at 100 μM, 37.5 μl DMSO was to columns 1 and 2, then 12.5 μl 10 mM compound; to start at 10 μM, 78 μl DMSO was added to columns 1 & 2, then 2 μl 10 mM compound; and to start at 1 μM, 25 μM compound (2 μl 10 mM cmpd+798 μl DMSO) was added to empty columns 1 and 2. A Precision instrument was used to perform 1:3.16 serial dilutions (“PLK_BM_serial_halflog”).
ATP was diluted to 282.1 μM in Complete Kinase Buffer (final concentration was 130 μM).
Total and Blank Preparation:
In Complete Reaction Buffer, substrate was diluted to 4 μM. Equal volumes of Complete Reaction Buffer and 4 μM substrate were combined to obtain the blank. Equal volumes of Complete Reaction Buffer and 4 μM substrate were combined and to the combined solution was added 2× final LRRK2 concentration.
To a 50 μl polypropylene plate, 5 μl/well buffer/substrate was added by hand to Blank wells. A Biomek FX was used to start the kinase reaction (“PLK SAR 23 ATP”). The following were added to the appropriate wells:
5 μl/well compound/ATP in Assay Plate;
5 μl/well kinase/substrate in Assay Plate;
The plate was incubated for 2 hours in the dark. Biomek FX was used to stop the kinase reaction (“PLK Stop”), and 10 μl/well Stop solution was added to the Assay Plate. Results were read on the LabChip 3000.
The LabChip 3000 was run using the job “LRRK2 IC50” with the following job settings:
Downstream voltage: −500 V
Upstream voltage: −2350 V
Post sample buffer sip time: 75 seconds
Post dye buffer sip time: 75 seconds
Final delay time: 200 seconds

T1 sequence (Q5S007 whole entry G2019S): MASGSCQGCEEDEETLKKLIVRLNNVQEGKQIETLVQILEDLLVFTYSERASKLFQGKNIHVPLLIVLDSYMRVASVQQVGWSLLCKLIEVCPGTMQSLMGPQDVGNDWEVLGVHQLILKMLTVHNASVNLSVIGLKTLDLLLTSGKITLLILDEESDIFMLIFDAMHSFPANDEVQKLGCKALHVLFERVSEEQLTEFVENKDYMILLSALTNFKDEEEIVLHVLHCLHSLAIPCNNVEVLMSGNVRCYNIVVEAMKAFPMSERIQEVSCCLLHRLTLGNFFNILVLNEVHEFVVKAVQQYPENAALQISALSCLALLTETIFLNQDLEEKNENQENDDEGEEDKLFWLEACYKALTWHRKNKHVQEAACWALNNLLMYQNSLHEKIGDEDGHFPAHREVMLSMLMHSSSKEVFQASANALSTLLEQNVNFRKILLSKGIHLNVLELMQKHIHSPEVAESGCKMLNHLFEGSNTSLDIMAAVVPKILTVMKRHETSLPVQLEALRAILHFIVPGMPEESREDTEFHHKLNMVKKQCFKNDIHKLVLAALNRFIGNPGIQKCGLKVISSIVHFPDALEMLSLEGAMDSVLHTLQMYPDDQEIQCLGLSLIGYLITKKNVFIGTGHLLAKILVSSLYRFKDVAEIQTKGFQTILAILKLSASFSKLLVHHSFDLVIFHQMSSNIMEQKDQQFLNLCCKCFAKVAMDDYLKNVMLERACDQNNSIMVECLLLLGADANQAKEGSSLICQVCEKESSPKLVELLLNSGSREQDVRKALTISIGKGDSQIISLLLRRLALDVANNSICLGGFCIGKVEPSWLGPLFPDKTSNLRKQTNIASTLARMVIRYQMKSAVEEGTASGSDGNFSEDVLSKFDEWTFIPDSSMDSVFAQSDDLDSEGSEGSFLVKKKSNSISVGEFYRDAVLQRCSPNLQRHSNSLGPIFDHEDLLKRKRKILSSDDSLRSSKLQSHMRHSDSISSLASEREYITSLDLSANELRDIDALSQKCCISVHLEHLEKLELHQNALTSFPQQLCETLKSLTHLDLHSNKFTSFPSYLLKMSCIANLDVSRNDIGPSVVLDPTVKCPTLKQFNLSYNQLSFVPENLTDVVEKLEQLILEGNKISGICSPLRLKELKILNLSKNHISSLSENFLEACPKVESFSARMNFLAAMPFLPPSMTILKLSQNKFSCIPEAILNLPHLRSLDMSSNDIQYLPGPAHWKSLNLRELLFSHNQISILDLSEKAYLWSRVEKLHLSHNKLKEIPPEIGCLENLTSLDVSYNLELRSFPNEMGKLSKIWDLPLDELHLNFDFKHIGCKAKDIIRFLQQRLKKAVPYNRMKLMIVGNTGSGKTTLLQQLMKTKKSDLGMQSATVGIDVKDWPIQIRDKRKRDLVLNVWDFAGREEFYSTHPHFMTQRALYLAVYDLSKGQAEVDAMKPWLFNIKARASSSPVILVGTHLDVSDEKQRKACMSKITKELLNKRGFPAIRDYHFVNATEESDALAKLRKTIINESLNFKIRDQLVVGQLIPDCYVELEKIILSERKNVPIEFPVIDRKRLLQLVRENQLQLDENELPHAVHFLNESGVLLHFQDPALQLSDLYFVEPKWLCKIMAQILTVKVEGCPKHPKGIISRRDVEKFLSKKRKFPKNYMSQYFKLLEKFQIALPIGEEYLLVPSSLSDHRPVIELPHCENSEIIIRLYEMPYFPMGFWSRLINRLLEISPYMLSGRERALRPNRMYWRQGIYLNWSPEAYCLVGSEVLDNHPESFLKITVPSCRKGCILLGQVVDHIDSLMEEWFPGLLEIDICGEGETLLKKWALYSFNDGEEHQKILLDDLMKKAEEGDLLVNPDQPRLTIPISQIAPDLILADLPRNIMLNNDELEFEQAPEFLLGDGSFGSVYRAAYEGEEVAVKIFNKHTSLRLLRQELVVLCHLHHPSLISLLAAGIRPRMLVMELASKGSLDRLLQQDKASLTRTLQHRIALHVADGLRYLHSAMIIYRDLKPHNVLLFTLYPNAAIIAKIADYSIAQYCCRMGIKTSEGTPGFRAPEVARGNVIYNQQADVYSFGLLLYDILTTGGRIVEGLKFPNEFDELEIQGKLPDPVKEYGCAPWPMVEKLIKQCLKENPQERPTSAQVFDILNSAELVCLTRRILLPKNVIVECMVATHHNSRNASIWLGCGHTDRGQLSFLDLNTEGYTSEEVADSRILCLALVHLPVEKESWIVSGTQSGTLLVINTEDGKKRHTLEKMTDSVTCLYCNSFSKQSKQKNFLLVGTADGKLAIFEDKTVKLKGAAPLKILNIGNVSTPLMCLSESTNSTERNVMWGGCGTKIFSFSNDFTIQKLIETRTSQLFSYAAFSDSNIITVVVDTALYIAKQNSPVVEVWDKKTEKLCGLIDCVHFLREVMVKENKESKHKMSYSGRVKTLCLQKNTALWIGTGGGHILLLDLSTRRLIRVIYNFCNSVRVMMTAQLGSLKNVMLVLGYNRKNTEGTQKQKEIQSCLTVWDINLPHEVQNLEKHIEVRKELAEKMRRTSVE

Ki [nM]	SMILES
3.41	CNc1nc(Nc2cc(F)c(C(=O)N3CCN4CCCC4C3)cc2OC)ncc1C(F)(F)F (stereo not drawn) [Compound 4, [2-Fluoro-5-methoxy-4-(4-methylamino-5-trifluoromethyl-pyrimidin-2-ylamino)-phenyl]-(hexahydro-pyrrolo[1,2-a]pyrazin-2-yl)-methanone]
120	COc1nc(Nc2ccc(C(=O)N3CCOCC3)cc2O)ncc1Cl [Compound 9, [4-(5-Chloro-4-methoxy-pyrimidin-2-ylamino)-3-hydroxy-phenyl]-morpholin-4-yl-methanone]
11.6	CNc1nc(Nc2cc(O)c(C(=O)N3CCOCC3)cc2Cl)ncc1C(F)(F)F [Compound 10, [5-Chloro-2-hydroxy-4-(4-methylamino-5-trifluoromethyl-pyrimidin-2-ylamino)-phenyl]-morpholin-4-yl-methanone]
13.5	CNc1nc(Nc2ccc(C(=O)N3CCOCC3)c(F)c2F)ncc1C(F)(F)F [Compound 12, [2,3-Difluoro-4-(4-methylamino-5-trifluoromethyl-pyrimidin-2-ylamino)-phenyl]-morpholin-4-yl-methanone]
0.59	CCNc1nc(Nc2cc(F)c(C(=O)N3C[C@@H]4C[C@H]3CO4)cc2OC)ncc1C(F)(F)F [Compound 14, [4-(4-Ethylamino-5-trifluoromethyl-pyrimidin-2-ylamino)-2-fluoro-5-methoxy-phenyl]-(1S,4S)-2-oxa-5-aza-bicyclo[2.2.1]hept-5-yl-methanone]
2.55	CNc1nc(Nc2cc(OC)c(C(=O)N3C[C@@H]4C[C@H]3CO4)cc2Cl)ncc1C(F)(F)F [Compound 15, [5-Chloro-2-methoxy-4-(4-methylamino-5-trifluoromethyl-pyrimidin-2-ylamino)-phenyl]-(1S,4S)-2-oxa-5-aza-bicyclo[2.2.1]hept-5-yl-methanone]
0.429	CCNc1nc(Nc2cc(F)c(C(=O)NCC(C)(C)O)cc2OC)ncc1C(F)(F)F [Compound 18, 4-(4-Ethylamino-5-trifluoromethyl-pyrimidin-2-ylamino)-2-fluoro-N-(2-hydroxy-2-methyl-propyl)-5-methoxy-benzamide]
1.94	CCNc1nc(Nc2cc(F)c(C(=O)N(C)CC(C)(C)O)cc2OC)ncc1C(F)(F)F [Compound 19, 4-(4-Ethylamino-5-trifluoromethyl-pyrimidin-2-ylamino)-2-fluoro-N-(2-hydroxy-2-methyl-propyl)-5-methoxy-N-methyl-benzamide]
3.12	CNc1nc(Nc2cc(OC)c(C(=O)N3CC(N4CCOCC4)C3)cc2Cl)ncc1C(F)(F)F [Compound 20, [5-Chloro-2-methoxy-4-(4-methylamino-5-trifluoromethyl-pyrimidin-2-ylamino)-phenyl]-(3-morpholin-4-yl-azetidin-1-yl)-methanone]
0.371	CCNc1nc(Nc2ccc(C(=O)NC(C)(C)C)cc2OC)ncc1C(F)(F)F [Compound 21, N-tert-Butyl-4-(4-ethylamino-5-trifluoromethyl-pyrimidin-2-ylamino)-3-methoxy-benzamide]
4.09	CNc1nc(Nc2cc(OC)c(C(=O)N3CCN(C4COC4)CC3)cc2Cl)ncc1C(F)(F)F [Compound 23, [5-Chloro-2-methoxy-4-(4-methylamino-5-trifluoromethyl-pyrimidin-2-ylamino)-phenyl]-(4-oxetan-3-yl-piperazin-1-yl)-methanone]

Second part, the compound before the results:

SMILES	Ki [nM]
CNc1nc(Nc2cc(OC)c(C(=O)N3CCN(CCOC)CC3)cc2Cl)ncc1C(F)(F)F [Compound 1, [5-Chloro-2-methoxy-4-(4-methylamino-5-trifluoromethyl-pyrimidin-2-ylamino)-phenyl]-[4-(2-methoxy-ethyl)-piperazin-1-yl]-methanone]	4
CNc1nc(Nc2cc(C)c(C(=O)N3CCOCC3)cc2Cl)ncc1C(F)(F)F [Compound 2, [5-Chloro-2-methyl-4-(4-methylamino-5-trifluoromethyl-pyrimidin-2-ylamino)-phenyl]-morpholin-4-yl-methanone]	7
CNc1nc(Nc2cc(C)c(C(=O)N3CCOCC3)cc2OC)ncc1C(F)(F)F [Compound 3, [5-Methoxy-2-methyl-4-(4-methylamino-5-trifluoromethyl-pyrimidin-2-ylamino)-phenyl]-morpholin-4-yl-methanone]	1.43
CNc1nc(Nc2cc(F)c(C(=O)N3C[C@H]4CC[C@@H](C3)O4)cc2OC)ncc1C(F)(F)F [Compound 5, [2-Fluoro-5-methoxy-4-(4-methylamino-5-trifluoromethyl-pyrimidin-2-ylamino)-phenyl]-(1S,5R)-8-oxa-3-aza-bicyclo[3.2.1]oct-3-yl-methanone]	1.78
CCNc1nc(Nc2cc(F)c(C(=O)N3C[C@H]4CC[C@@H](C3)O4)cc2OC)ncc1C(F)(F)F [Compound 6, [4-(4-Ethylamino-5-trifluoromethyl-pyrimidin-2-ylamino)-2-fluoro-5-methoxy-phenyl]-(1S,5R)-8-oxa-3-aza-bicyclo[3.2.1]oct-3-yl-methanone]	0.501
CNc1nc(Nc2cc(F)c(C(=O)N(C)C3CCN(C)CC3)cc2OC)ncc1C(F)(F)F [Compound 7, 2-Fluoro-5-methoxy-N-methyl-4-(4-methylamino-5-trifluoromethyl-pyrimidin-2-ylamino)-N-(1-methyl-piperidin-4-yl)-benzamide]	7.55
CNc1nc(Nc2cc(F)c(C(=O)N3CCC(N4CCOCC4)CC3)cc2OC)ncc1C(F)(F)F [Compound 8, [2-Fluoro-5-methoxy-4-(4-methylamino-5-trifluoromethyl-pyrimidin-2-ylamino)-phenyl]-(4-morpholin-4-yl-piperidin-1-yl)-methanone]	0.7
CNc1nc(Nc2cc(F)c(C(=O)N3C[C@@H]4C[C@H]3CO4)cc2OC)ncc1C(F)(F)F [Compound 11, [2-Fluoro-5-methoxy-4-(4-methylamino-5-trifluoromethyl-pyrimidin-2-ylamino)-phenyl]-(1S,4S)-2-oxa-5-aza-bicyclo[2.2.1]hept-5-yl-methanone]	2.1
CNc1nc(Nc2ccc(C(=O)N3CCOCC3)c(F)c2F)ncc1Cl [Compound 13, [4-(5-Chloro-4-methylamino-pyrimidin-2-ylamino)-2,3-difluoro-phenyl]-morpholin-4-yl-methanone]	14.5
CNc1nc(Nc2cc(F)c(C(=O)N3CCOCC3)cc2F)ncc1C(F)(F)F [Compound 16, [2,5-Difluoro-4-(4-methylamino-5-trifluoromethyl-pyrimidin-2-ylamino)-phenyl]-morpholin-4-yl-methanone]	24.2
CNc1nc(Nc2cc(F)c(C(=O)N3CCOCC3)cc2F)ncc1Cl [Compound 17, [4-(5-Chloro-4-methylamino-pyrimidin-2-ylamino)-2,5-difluoro-phenyl]-morpholin-4-yl-methanone]	35.6
CNc1nc(Nc2ccc(C(=O)N3CCOCC3)cc2F)ncc1C(F)(F)F [Compound 22, [3-Fluoro-4-(4-methylamino-5-trifluoromethyl-pyrimidin-2-ylamino)-phenyl]-morpholin-4-yl-methanone]	20.9
CNc1nc(Nc2cc(OC)c(C(=O)N3CCC(F)(F)C3)cc2Cl)ncc1C(F)(F)F [Compound 24, [5-Chloro-2-methoxy-4-(4-methylamino-5-trifluoromethyl-pyrimidin-2-ylamino)-phenyl]-(3,3-difluoro-pyrrolidin-1-yl)-methanone]	6.67

Same assay, conditions: Table 6 compounds (formula II/III, fused ring)

Ki [nM]	SMILES
0.31	CNc1nc(Nc2cc(C)c(C(=O)N3CCOCC3)cc2Cl)ncc1C(F)(F)F [Compound 2, [5-Chloro-2-methyl-4-(4-methylamino-5-trifluoromethyl-pyrimidin-2-ylamino)-phenyl]-morpholin-4-yl-methanone]
1.08	CNc1nc(Nc2cc(C)c(C(=O)N3CCOCC3)cc2OC)ncc1C(F)(F)F [Compound 3, [5-Methoxy-2-methyl-4-(4-methylamino-5-trifluoromethyl-pyrimidin-2-ylamino)-phenyl]-morpholin-4-yl-methanone]
0.636	CCNc1nc(Nc2ccc(C(=O)N3CCC(F)(F)C3)c3c2OCCO3)ncc1C(F)(F)F [Compound 6]

— patent US8809331B2 (Genentech, Inc., priority 2011, dated 2014)
